According to PubChem BioAssay AID2060886 (Molecular Pharmacology Branch, DTP, NCI, 2025):
pIC50: −log10 of the molar value.

Tested on: 653999-131-R-J2-PDC complex spheroids, growth inhibition
Experiment: Anticancer human tumor 653999-131-R-J2-PDC patient-derived lung adenocarcinoma cell line growth inhibition [RAS]
Conditions: for pIC50: curve of first compound; for viability, T/C: stronger effect = lower value; active = viability on the fitted dose curve at most 10% of control; inactive = the rest
Summary of the method: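 Tumour cells grown as complex spheroids with HUVEC endothelial cells and mesenchymal stem cells, treated with RAS pathway inhibitor combinations. Each agent spans half-log steps from near clinical Cmax, or 10 microM where Cmax is unknown.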

[1] = second compound 0.000949 µM, first compound 0.00316 µM
[2] = second compound 0.000949 µM, first compound 0.01 µM
[3] = second compound 0.000949 µM, first compound 0.0316 µM
[4] = second compound 0.000949 µM, first compound 0.1 µM
[5] = second compound 0.000949 µM, first compound 0.316 µM
[6] = second compound 0.000949 µM, first compound 1 µM
[7] = second compound 0.003 µM, first compound 0.00316 µM
[8] = second compound 0.003 µM, first compound 0.01 µM
[9] = second compound 0.003 µM, first compound 0.0316 µM
[10] = second compound 0.003 µM, first compound 0.1 µM
[11] = second compound 0.003 µM, first compound 0.316 µM
[12] = second compound 0.003 µM, first compound 1 µM
[13] = second compound 0.00949 µM, first compound 0.00316 µM
[14] = second compound 0.00949 µM, first compound 0.01 µM
[15] = second compound 0.00949 µM, first compound 0.0316 µM
[16] = second compound 0.00949 µM, first compound 0.1 µM
[17] = second compound 0.00949 µM, first compound 0.316 µM
[18] = second compound 0.00949 µM, first compound 1 µM
[19] = second compound 0.03 µM, first compound 0.00316 µM
[20] = second compound 0.03 µM, first compound 0.01 µM
[21] = second compound 0.03 µM, first compound 0.0316 µM
[22] = second compound 0.03 µM, first compound 0.1 µM
[23] = second compound 0.03 µM, first compound 0.316 µM
[24] = second compound 0.03 µM, first compound 1 µM
[25] = second compound 0.0949 µM, first compound 0.00316 µM
[26] = second compound 0.0949 µM, first compound 0.01 µM
[27] = second compound 0.0949 µM, first compound 0.0316 µM
[28] = second compound 0.0949 µM, first compound 0.1 µM
[29] = second compound 0.0949 µM, first compound 0.316 µM
[30] = second compound 0.0949 µM, first compound 1 µM
[31] = second compound 0.3 µM, first compound 0.00316 µM
[32] = second compound 0.3 µM, first compound 0.01 µM
[33] = second compound 0.3 µM, first compound 0.0316 µM
[34] = second compound 0.3 µM, first compound 0.1 µM
[35] = second compound 0.3 µM, first compound 0.316 µM
[36] = second compound 0.3 µM, first compound 1 µM
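Also: spheroids exposed to the agents for seven days before the readout.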

C=CC(=O)N1CCN(c2nc(OCC3CCCN3C)nc3c(F)c(-c4nc(N)cc(C)c4C(F)(F)F)c(Cl)cc23)C(C)C1 (centres undefined) + CCn1c(-c2cccnc2C(C)OC)c2c3cc(ccc31)N1CCOC(CC(NC(=O)C(C(C)C)N(C)C(=O)C3(F)CCN(C(=O)C#CC(C)(C)N(C)C)CC3)C(=O)N3CCCC(N3)C(=O)OCC(C)(C)C2)C1
inactive: viability, T/C [1] 94.1% | viability, T/C [2] 103% | viability, T/C [3] 101% | viability, T/C [4] 98.3% | viability, T/C [5] 103% | viability, T/C [6] 91.5% | viability, T/C [7] 113% | viability, T/C [8] 101% | viability, T/C [9] 102% | viability, T/C [10] 98.9% | viability, T/C [11] 99.8% | viability, T/C [12] 104% | viability, T/C [13] 93.2% | viability, T/C [14] 104% | viability, T/C [15] 102% | viability, T/C [16] 96.9% | viability, T/C [17] 109% | viability, T/C [18] 106% | viability, T/C [19] 102% | viability, T/C [20] 99.2% | viability, T/C [21] 104% | viability, T/C [22] 91.6% | viability, T/C [23] 114% | viability, T/C [24] 101% | viability, T/C [25] 84.2% | viability, T/C [26] 107% | viability, T/C [27] 112% | viability, T/C [28] 107% | viability, T/C [29] 108% | viability, T/C [30] 102% | viability, T/C [31] 103% | viability, T/C [32] 98.9% | viability, T/C [33] 111% | viability, T/C [34] 108% | viability, T/C [35] 104% | viability, T/C [36] 96.8%
< 6.00: pIC50 (second compound 0.000949 µM) | pIC50 (second compound 0.003 µM) | pIC50 (second compound 0.00949 µM) | pIC50 (second compound 0.03 µM) | pIC50 (second compound 0.0949 µM) | pIC50 (second compound 0.3 µM)

C=CC(=O)Nc1cc(Nc2nccc(-c3cn(C)c4ccccc34)n2)c(OC)cc1N(C)CCN(C)C + CCn1c(-c2cc(N3CCN(C)CC3)cnc2C(C)OC)c2c3cc(ccc31)-c1csc(n1)CC(NC(=O)C1CC1C)C(=O)N1CCCC(N1)C(=O)OCC(C)(C)C2
inactive: viability, T/C [1] 88.7% | viability, T/C [2] 75.9% | viability, T/C [3] 56.2% | viability, T/C [4] 76% | viability, T/C [5] 56.7% | viability, T/C [6] 44.5% | viability, T/C [7] 80.6% | viability, T/C [8] 63.7% | viability, T/C [9] 59% | viability, T/C [10] 52.9% | viability, T/C [11] 43.1% | viability, T/C [12] 37.2% | viability, T/C [13] 47.3% | viability, T/C [14] 39.5% | viability, T/C [15] 36.7% | viability, T/C [16] 38% | viability, T/C [17] 31.6% | viability, T/C [18] 23.2% | viability, T/C [19] 36.4% | viability, T/C [20] 29.9% | viability, T/C [21] 28% | viability, T/C [22] 37.2% | viability, T/C [23] 28.8% | viability, T/C [24] 16.2% | viability, T/C [25] 25.3% | viability, T/C [26] 25.1% | viability, T/C [27] 20.9% | viability, T/C [28] 16.8% | viability, T/C [29] 18.6% | viability, T/C [30] 12.7% | viability, T/C [31] 18.2% | viability, T/C [32] 26.2% | viability, T/C [33] 22.1% | viability, T/C [34] 22.1% | viability, T/C [35] 16.6% | viability, T/C [36] 11.2%
6.97: pIC50 (second compound 0.003 µM)
6.09: pIC50 (second compound 0.000949 µM)
> 8.50: pIC50 (second compound 0.00949 µM) | pIC50 (second compound 0.03 µM) | pIC50 (second compound 0.0949 µM) | pIC50 (second compound 0.3 µM)
